Data: patent US10016382B2, “Method for decreasing skeletal muscle damage and/or oxidative stress in mammals” (LONZA INC., priority 2014, dated 2018)
“And” between values parts separate entries of the source, which are not always exact repeats. Identical values can stand only once.

Columns and labels:
Labrador Retrievers [1] = assay: Oxygen consumption on treadmill (Oxymax open-circuit calorimeter), Example 2 part three; type: in vivo, dog
Procedure: Sixteen Labrador Retrievers ranging in age from 1.5 to 3 years were fed low carnitine basal diets with and without added L-carnitine for a 37 week period that included part one and two of the study. Eight (4 male and 4 female) of the test L-carnitine dogs were each fed 3.75 g sugar and 250 mg of L-carnitine, while the other eight dogs (4 male and 4 female) were fed only 4 g of sugar each day for the experimental period. The sixteen test dogs were fed the same diet for parts one, two, and three of the study. During part three of the study, the 16 test dogs were exclusively exercised on the industry sized canine treadmill. Initial Oxymax data was developed for each of the test dogs at various times and speeds in order to determine appropriate speeds on the treadmill required to achieve maximum VO2 concentration. The dogs were run for 15 minutes at 6.5 mph to determine VO2 max. The 16 test dogs were then ran at 50% VO2 max (equivalent to 4 mph) on the treadmill for 30 minutes to determine total energy expenditure (heat production). The system used to acquire information on volume of oxygen consumption and energy expenditure was an Open-Circuit calorimeter, which employed air from the surrounding environment. A mask specially designed for dogs was used to recover the gas sample and ventilate the dog. A small sample was drawn for gas analysis and dried to assure that the readings were made in a sample that was not under the influence of water vapor air exiting the chamber. The O2 and CO2 sensors were connected to software, and instant values of O2 and CO2 were measured. The 16 test dogs (8 L-carnitine dogs, 4 male and 4 female, and 8 control dogs, 4 male and 4 female) were exercised at a warm up speed of 2 mph for 5 minutes prior to running at VO2 max for 15 minutes at 6.5 mph. The next week, the test dogs ran again at a warm up speed of 2 mph for 5 minutes and then at 50% VO2 max for 30 minutes at 4 mph. The statistical analysis for gas exchange was analyzed by a factorial design 2×2 (2 genders and 2 diet treatments) and 2×2×2 (2 genders, 2 diets, 2 speeds) at p-value<0.05. The variable maximum oxygen consumption (Max VO2) was the highest amount of oxygen consumption during the exercise time. The mean oxygen consumption (Mean VO2) was the average amount of oxygen consumption during the exercise time. Oxygen consumption was reported on a per L/kg BW/h basis.

Labrador Retrievers [2] = assay: Time of final 15 mile endurance run, Example 1 (90 day study); type: in vivo, dog; conditions: Ex.1, 250 mg/d; for Final run time: 15 mile run at end of 90 day study, mean ± SEM
Procedure: Forty Labrador Retrievers were divided into two equal groups of twenty (11 males, 9 females) based on gender, body weight (“BW”), genetics, and lean mass and fed a low L-carnitine basal diet for a 90 day feeding period. The experimental dogs were fed the low L-carnitine basal for 10 days prior to the start of the study. Twenty of the Labs received 250 mg/day of L-carnitine (batch D22312) and 3.75 g of sugar and twenty of the Labs received 4 g/d of sugar. The dogs were scanned with a GE Prodigy DEXA system immediately prior to beginning of the study and the determined lean mass was utilized as a key component for helping assort the dogs equally between the control and L-carnitine group. A serum sample was obtained from each dog to determine a baseline value for blood biomarkers that were used to evaluate muscle damage and antioxidant status. The L-carnitine and control performance dogs were put through a weekly running program consisting of running sprint type shorter runs of higher intensity twice weekly (1200 yds/session increasing to 2400 yds/session over 10 wk period) and running endurance longer runs one time per wk (increasing from 5 miles/session to 10 miles per session over a 10 wk period). Each performance dog also wore the Actical activity monitor during the last endurance run. The dogs were put through a 15 mile run that included mud, water, tall grass, and swimming. The dogs were timed when they completed the course. The dogs were encouraged by kennel staff that rode along in a 4 wheel all terrain type vehicle during all of the endurance runs. […] Immediately following the 15 mile endurance run, each dog was placed in a kennel and evaluated for recovery time for body temperature (every 15 minutes for 2 hr) and heart rate (every 2 minutes for 14 minutes). Twenty four hours after test dogs ran the last 15 endurance run, post-run serum samples were taken to evaluate biomarkers for muscle damage and antioxidant status. Each test dog was also scanned with the GE Prodigy DEXA to determine body composition change that occurred during the course of the 13 wk study. Experimental Design: Forty Labrador Retrievers (labs) ranging in age from 1 to 3.5 years were incorporated into a two dietary treatment study. The two dietary treatments were based on feeding the test dogs the same low L-carnitine diet but adding 250 mg per day of L-carnitine to the L-carnitine group. Each of the L-carnitine dogs received the daily 250 mg of L-carnitine mixed with an additional 3.75 g sugar. The control dogs received 4 g of sugar each day. Twenty labs of equal gender, age, excitement level, frame size, body weight and genetic background were utilized for each of the two treatments. The labs utilized for the nutrition study were from a minimum of 6 different bitches. The lean body mass of the 40 test dogs was determined by scanning with the DEXA and the final key component utilized to assure equal groups. Prior to the start of the study, the labs were acclimated to the experimental diets for a minimum of 10 days. The labs were weighed at the beginning of the 90 day study and weighed every two weeks throughout the study. Feed consumption was determined daily by weighing feed provided and feed refusals. The quantity of food provided each dog on a daily basis was adjusted based on maintaining a minimum initial starting body weight throughout the study. […]

[3] = Ex.2 part three, 250 mg/d, females, 6.5 mph for 15 min (VO2 max)
[4] = Ex.2 part three, 250 mg/d, females, 50% VO2 max (4 mph, 30 min)
[5] = Ex.2 part three, 250 mg/d, females, average of combined speeds (4 mph and 6.5 mph)
[6] = combined speeds 4.0 and 6.5 (50% VO2 Max and VO2 Max), diet main effect, both genders
[7] = combined speeds 4.0 and 6.5 (50% VO2 Max and VO2 Max), female dogs
[8] = combined speeds 4.0 and 6.5 (50% VO2 Max and VO2 Max), male dogs
[9] = treadmill speed 4 for 30 min (50% VO2 Max), diet main effect, both genders
[10] = treadmill speed 4 for 30 min (50% VO2 Max), female dogs
[11] = treadmill speed 4 for 30 min (50% VO2 Max), male dogs
[12] = treadmill speed 6.5 for 15 min (VO2 Max), diet main effect, both genders
[13] = treadmill speed 6.5 for 15 min (VO2 Max), female dogs
[14] = treadmill speed 6.5 for 15 min (VO2 Max), male dogs

## C[N+](C)(C)C[C@H](O)CC(=O)[O-] [L-carnitine]
Labrador Retrievers [1]; [3]
  Max VO2 consumption: 60.8 mL/min/kg
  Mean VO2: 3.11 L/kg/h
Labrador Retrievers [1]; [4]
  Max VO2 consumption: 42 mL/min/kg
  Mean VO2: 1.99 L/kg/h
Labrador Retrievers [1]; [5]
  Maximum VO2 consumption: 50.3 mL/min/kg
  Mean VO2 consumption: 41.7 mL/min/kg
Labrador Retrievers [1]; [6]
  Max VO2: 2.80 L/kg/h
  Mean VO2: 2.40 L/kg/h
Labrador Retrievers [1]; [7]
  Max VO2: 3.02 a L/Kg/h
  Mean VO2: 2.50 a L/Kg/h
Labrador Retrievers [1]; [8]
  Max VO2: 2.57 ab L/Kg/h
  Mean VO2: 2.31 ab L/Kg/h
Labrador Retrievers [1]; [9]
  Max VO2: 2.39 L/kg/h
  Mean VO2: 1.98 L/kg/h
Labrador Retrievers [1]; [10]
  Max VO2: 2.52 L/kg/h
  Mean VO2: 1.99 L/kg/h
Labrador Retrievers [1]; [11]
  Max VO2: 2.26 L/kg/h
  Mean VO2: 1.97 L/kg/h
Labrador Retrievers [1]; [12]
  Max VO2: 3.27 L/kg/h
  Mean VO2: 2.89 L/kg/h
Labrador Retrievers [1]; [13]
  Max VO2: 3.65 L/kg/h
  Mean VO2: 3.11 L/kg/h
Labrador Retrievers [1]; [14]
  Max VO2: 2.89 L/kg/h
  Mean VO2: 2.66 L/kg/h
Labrador Retrievers [2]; both sexes
  Final run time: 95.84 min and 95.84 ± 1.417^A n = 19 min
Labrador Retrievers [2]; females
  Final run time: 98.50 ± 3.179 n = 8 min
Labrador Retrievers [2]; males
  Final run time: 93.91 ± 0.4564^A n = 11 min
Labrador Retrievers [2]; both sexes vs control dogs
  15-mile timed run, minutes faster than control: 6.56 min
Labrador Retrievers [2]; males vs control males
  15-mile timed run, minutes faster than control: 8.69 min
